{"source": "patent US20170283859A1", "about": "“MICROFLUIDIC qRT-PCR ANALYSIS OF SINGLE CELLS” (The Trustees Of Columbia University In the City of New York, priority 2014, published 2017)", "assay_type_in_all_cases": "cell-based", "key": {"[1]": {"test_system": "CDKN1A transcript levels in single MCF-7 cells", "test": "Microfluidic array single-cell RT-qPCR, drug induced CDKN1A expression", "description": "During the operation of the array chip, a single analysis unit is selected through the multiplexed valves and then 4x10^6 magnetic beads are introduced (100 nL/s for 20 s) until all analysis units have beads with a syringe pump while an external magnet is held under the chambers. The amount of beads is determined according to the manufacturer's reported bead density and verified by pipetting beads onto a glass slide and counting the total amount of beads with ImageJ software. Next a single analysis unit is reselected with the multiplexed valves and 1.25 μL of cell-containing carrier buffer are introduced (concentration: 10^5 cells/mL, flow rate: 15 nL/s, and infusion time: 83.3 seconds) into the microfluidic device and travel through the cell trap with the first cell to reach the trapping structure becoming trapped. The width of the constriction (5 μm) is smaller than the diameter of the cells (18±2 μm) and therefore the single cell can be immobilized in the trap.\nOnce a single cell becomes immobilized, the back control valve is opened to allow carrier fluid, potentially containing additional cells, to bypass the trapping region and flow directly to the outlet. To further ensure that no cells remain in the outlet well, buffer is injected into the inlet well with a syringe with a 25 gauge stainless steel needle. Lysis buffer is introduced into the cell trap region of each analysis unit at a flow rate of 2 μl/min over a 5-min period to lyse the trapped cell (Sun et al. 2015). After cell lysis the beads were mixed with the cell lysate by manually moving the magnet and captured the mRNA in the cell content, based on complimentary base pairing between the polyA tails of the mRNA and the oligo(dT)25 residues covalently coupled to the bead surfaces. […] The beads were moved into the active chamber and mixed with the sample (mRNA in cell lysate or XenoRNA) by magnet-driven motion. This process is then repeated for the remaining units of the array chip until five of the RT-qPCR chambers each contain beads with bound mRNA. The sixth chamber provides no-template control.\nReverse transcription is performed in all of the six chambers to convert the mRNA into cDNA, using the bead-bound oligo(dT)25 as a primer and with the chamber temperatures controlled simultaneously in closed loop by the integrated heater and temperature sensor (RT: 10 min at 25° C. and 50 min at 42° C.). The resulting cDNA template for PCR is amplified (qPCR: 10 min at 95° C., followed by 40 cycles of 15 s at 95° C. and 1 min at 60° C.) while the accumulation of products is imaged on a fluorescence microscope using a hydrolysis probe/primer set (TaqMan®). The reagent probe/primer consists of a fluorescein amidite (FAM) reporter dye, a minor groove binder and a nonfluorescent quencher (NFQ). Initially, the fluorescence of FAM is suppressed by NFQ. During the PCR annealing process, the probe binds to a complementary region of the target template. Then, during the elongation process that follows, […] from the probe, causing the fluorescent intensity of FAM to increase. To correct for fluorescent fluctuations due to batch-to-batch changes in cavity volume and PCR component concentrations, a passive reference dye (ROX) is employed to normalize the FAM signal during real-time measurements. Fluorescent intensities of ROX and FAM are acquired and measured at the end of each PCR cycle (FIG. 29).\nIn this example, stress induced gene expression in single cells was investigated by treating cells with MMS, an alkylating agent, and then analyzing them by on-chip RT-qPCR. […]\nIn each test, five MMS treated or untreated single cells were isolated and immobilized in five separate analysis units of the array, and the remaining unit was used as a no-template control. Similar to the above mentioned protocol, after cell trapping and lysis, the two-step RT-qPCR was initialized. […]"}, "[2]": {"test_system": "GAPDH transcript level in single MCF-7 cells", "test": "Microfluidic array single-cell RT-qPCR, housekeeping gene GAPDH", "conditions": "120 μg/mL MMS for 2.5 h", "description": "During the operation of the array chip, a single analysis unit is selected through the multiplexed valves and then 4x10^6 magnetic beads are introduced (100 nL/s for 20 s) until all analysis units have beads with a syringe pump while an external magnet is held under the chambers. The amount of beads is determined according to the manufacturer's reported bead density and verified by pipetting beads onto a glass slide and counting the total amount of beads with ImageJ software. […] The resulting cDNA template for PCR is amplified (qPCR: 10 min at 95° C., followed by 40 cycles of 15 s at 95° C. and 1 min at 60° C.) while the accumulation of products is imaged on a fluorescence microscope using a hydrolysis probe/primer set (TaqMan®). […] Initially, the fluorescence of FAM is suppressed by NFQ. […] Fluorescent intensities of ROX and FAM are acquired and measured at the end of each PCR cycle (FIG. 29). […] The transcript levels of CDKN1 A and the housekeeping gene GAPDH was measured in MMS treated (120 μg/mL for 2.5 h) and untreated single MCF-7 cells using the microfluidic array. […]"}, "[3]": {"test_system": "CDKN1A gene expression in single MCF-7 cells", "test": "Fully integrated on-chip single-cell RT-qPCR (single analysis unit device), induction of CDKN1A", "description": "In this example, all steps of single-cell RT-qPCR were integrated in the device from Example 1. […] MCF-7 cells were incubated with MEM media supplemented with 10% FBS and […], and were kept at 37° C. in a humidified incubator containing 5% CO2. The Cells used herein, whether treated or not, were from the same generation of MCF-7 cells to eliminate potential generational gene expression differences. The MCF-7 cell suspension was first diluted to 10^5 cells per mL in a microcentrifuge tube, and mixed to homogenize the suspension and break up cell clusters. The homogenized cell suspension was then driven into the device through the cell inlet via a syringe pump while valves were used to manipulate the direction of the flow. The trapping structure was observed under a microscope. As all cells were directed through the cell trapping unit and the width of the channel at the protruding structure (i.e., the portion of the mold that narrows the channel) within the trapping unit (5 μm) is smaller than the average diameter of MCF-7 cells (18±2 μm), a single cell was immobilized in the trap. Once a single cell was trapped, the upstream control valve (FIG. 5) was activated while the cell washing outlet was opened to direct (the potentially cell-containing) carrier fluid away from the cell trap. On average, 1.5 cells were introduced into the device per second. Single cells were consistently trapped in the microchip in 150 seconds or less. A lysis solution (100 mM TrisHCl, pH 7.5, 500 mM LiCl, 10 mM EDTA, 1% LiDS, 5 mM dithiothreitol) was used to chemically lyse the trapped cells. By mixing oligo(dT)25 functionalized beads with the cell lysate, mRNA templates from a single cell were captured and purified on the surface of the beads. The beads were then moved back to the reaction chamber and retained by an external magnet. With the cell trapping and washing outlets closed and the upstream and downstream valves open (FIG. 5), RT reagents were pipetted into the device chamber, followed by the closure of all the inlets and outlets. Then a pulsed temperature RT protocol was carried out (10 min at 25° C. and 50 min at 42° C.). Similarly, after RT, PCR reagents were introduced into the device which simultaneously flushed away the RT reagent, while the chip was situated on a magnet to immobilize the beads. Once the PCR reagents completely filled the reaction chamber, all the outlets were sealed with plugs. Then the platform was placed on the stage of a fluorescent microscope. Each PCR process was initialized and thermocycled with the following protocols: 10 min at 95° C., followed by 35 cycles of 15 s at 95° C. and 1 min at 60° C. The gene expressions of single cells were assayed for the induction of CDKN1A using a hydrolysis probe/primer. […] The threshold was calculated to be 0.07. […]"}}}
{"smiles": "COS(C)(=O)=O", "note": "[MMS, methyl methanesulfonate]", "values": [{"measurement": "ΔCq (difference between Cq of treated and untreated cells), CDKN1A", "setting": "[1]; 120 μg/mL MMS for 2.5 h", "value": 3.0}, {"measurement": "mean Cq value of CDKN1A", "setting": "[1]; 120 μg/mL MMS for 2.5 h, untreated 33.5", "value": 30.5}, {"measurement": "transcript levels of CDKN1A on treating single cells with MMS", "setting": "[1]; 120 μg/mL for 2.5 h", "value": "upregulated significantly"}, {"measurement": "upregulation of CDKN1A expression vs MMS dosage", "setting": "[1]; 30 to 150 μg/mL, 2.5 h", "value": "positively correlated with MMS dosage"}, {"measurement": "mean Cq value of CDKN1A", "setting": "[1]; dosage 30 μg/ml, 2.5 h", "value": 33.5}, {"measurement": "mean Cq value of CDKN1A", "setting": "[1]; dosage 150 μg/ml, 2.5 h", "value": 29.3}, {"measurement": "mean Cq value of CDKN1A", "setting": "[1]; exposure time 0.5 h", "value": 32.9}, {"measurement": "mean Cq value of CDKN1A", "setting": "[1]; exposure time 4.5 h", "value": 28.1}, {"measurement": "inter-unit Cq difference for CDKN1A", "setting": "[1]; first dose step (doses from 30 to 150 μg/ml, 2.5 h)", "value": 0.4}, {"measurement": "inter-unit Cq difference for CDKN1A", "setting": "[1]; fourth dose step (doses from 30 to 150 μg/ml, 2.5 h)", "value": 0.7}, {"measurement": "upregulation of CDKN1A expression vs treating time duration", "setting": "[1]; range of 0.5 to 4.5 h", "value": "positively correlated with treating time duration"}, {"measurement": "inter-unit Cq difference for CDKN1A", "setting": "[1]; second dose step (doses from 30 to 150 μg/ml, 2.5 h)", "value": 0.7}, {"measurement": "inter-unit Cq difference for CDKN1A", "setting": "[1]; third dose step, 90 to 120 μg/ml, 2.5 h", "value": 1.3}, {"measurement": "ΔCq (difference between Cq of treated and untreated cells), GAPDH", "setting": "[2]", "value": "approximately 0.5"}, {"measurement": "amount of starting templates higher than in untreated single cells", "setting": "[3]; 2.5 h MMS treated MCF-7 cells", "value": "about 45 folds"}, {"measurement": "Cq value of CDKN1A RT-qPCR", "setting": "[3]; MMS treated single MCF-7 cells, 2.5 h, mean of five repeated tests, untreated 32.3", "value": 26.8}, {"measurement": "mean Cq value lower than untreated single cells", "setting": "[3]; MMS treated vs untreated single MCF-7 cells", "value": 5.48, "unit": "cycles"}, {"measurement": "transcript levels of the CDKN1A gene after MMS treatment", "setting": "[3]; single MCF-7 cells", "value": "upregulated significantly"}]}
